According to the NIST ThermoML archive (doi:10.1016/j.jct.2014.09.022):

Assays:
[1] = mn = molality of the nth substance listed, in mol/kg; conditions: 298.15 K, 100 kPa, Liquid; for viscosity: Capillary tube (Ostwald / Ubbelohde) method; for mass density: Vibrating tube method
[2] = refractive index (Na D-line) (dimensionless); mn = molality of the nth substance listed, in mol/kg; conditions: 298.15 K, 100 kPa, Liquid, Standard Abbe refractometry
[3] = refractive index (Na D-line) (dimensionless); conditions: 298.15 K; 100 kPa; Liquid; Standard Abbe refractometry
[4] = 298.15 K, 100 kPa, Liquid

CCCCCCn1cc[n+](C)c1.[Cl-] [1-hexyl-3-methylimidazolium chloride] + CC(=O)N(C)C
Conditions | mass density, [1] [kg/m3] | refractive index, [2] | viscosity, [1] [mPa·s]
m1 = 0.0226 | 936.94 | 1.4283 | 1.029
m1 = 0.0468 | 937.6 | 1.429 | 1.042
m1 = 0.06 | 937.96 | 1.4295 | 1.057
m1 = 0.0797 | 938.48 | 1.4297 | 1.072
m1 = 0.1002 | 939.02 | 1.43 | 1.087
m1 = 0.1216 | 939.55 | 1.4303 | 1.106
m1 = 0.141 | 940.04 | 1.4307 | 1.123
m1 = 0.1621 | 940.56 | 1.431 | 1.129
m1 = 0.1781 | 940.95 | 1.4312 | 1.137
m1 = 0.2012 | 941.49 | 1.432 | 1.142

C(=NCCN=Cc1ccccn1)c1ccccn1 [N,N'-bis(2-pyridinylmethylene)-1,2-ethanediamine] + CC(=O)N(C)C
Conditions | mass density, [1] [kg/m3] | refractive index, [2] | viscosity, [1] [mPa·s]
m1 = 0.0471 | 937.73 | 1.4291 | 1.035
m1 = 0.091 | 939.12 | 1.43 | 1.069
m1 = 0.1327 | 940.31 | 1.4317 | 1.082
m1 = 0.1768 | 941.81 | 1.433 | 1.1

CC(=O)N(C)C [N,N-dimethylethanamide]
Conditions | refractive index
[3] | 1.4278

[4]
Conditions | mass density [kg/m3] | viscosity [mPa·s]
Capillary tube (Ostwald / Ubbelohde) method | – | 0.989
Vibrating tube method | 936.31 | –
